# Experiments:
# [1] = test system: PANC1 or PANC2.13; assay: Established subcutaneous human pancreatic xenograft tumors; type: in vivo, mouse
# Method: The drug was daily administrated into either NOD-SCID or athymic nude mice by oral gavages (OG) at 1 mg/kg or intraperitoneal (I.P) injection at 0.5 mg/kg. 10% DMSO, 10% cremophor, and 80% saline solutions were used as the solvent and vehicle control.
# [2] = test system: PANC1 and PANC2.13; assay: Morphology, viability and proliferating rate of human pancreatic cancer cell lines; type: cell-based
# Method: (§1) The dead cells were removed, and MTS assay (Promega, G5430) was performed for determining the percentage of viable cells, according to the manufacturer's instructions. DMSO was used as vehicle control and for normalization.
# [3] = test system: K-Ras and CaM interaction; assay: CaM pull-down assay of K-Ras/calmodulin interaction; type: cell-based; conditions: Ras^V12-transformed cells and multiple human pancreatic cancer cell lines (FIG. 5H)
# [4] = test system: CaMKii; assay: Western blot of phospho-CaMKii in rescued Rasless MEFs; type: cell-based, mouse
# Method: Experimental cells were washed twice in ice-cold PBS and lysed in 1% Triton lysis buffer [25 mmol/L Tris pH 7.5, 150 mmol/L NaCl, 1% Triton X-100, 1 mmol/L EDTA, 1 mmol/L EGTA, 20 mmol/L NaF, 1 mmol/L […], and 1 mmol/L DTT] supplemented with a protease inhibitor cocktail (Roche) and cleared by centrifugation. Protein concentrations were determined by the Bio-Rad Protein Assay (Bio-Rad). Equal amounts of protein extracts were resolved using SDS-PAGE (NuPAGE; Invitrogen), transferred to a nitrocellulose membrane, and immunoblotted with primary antibodies indicated, followed by secondary antibodies labeled with either IRDye800 (Rockland) or Alexa Fluor 680 (Molecular Probes) and were visualized using a LI-COR Odyssey scanner. A complete list of primary antibodies is provided in the Extended Experimental Procedures.
# [5] = test system: Rasless MEFs; assay: Cell viability of rescued Rasless MEFs; type: cell-based, mouse
# Method: as §1
# [6] = test system: K-Ras^G12V-induced papillomas; assay: K-Ras^G12V-induced papilloma in LRIG1cre/ER/LSL-Ras^G12V GEMM; type: in vivo, mouse
# Description: We first used a papilloma model driven by H- or K-Ras^G12V under the control of a skin stem cell promoter, Lrig1 (FIG. 7C) (Jaks et al., Exp Cell Res 316:1422-1428, 2010; Page et al., Cell Stem Cell 13, 471-482, 2013). In this GEMM, tamoxifen inducible Cre recombinase initiates the expression of oncogenic H- or K-Ras^G12V, and the enforced oncogenic Ras expression disrupts the skin hemeostasis during wound healing and further induces papilloma formations (FIG. 7C).
# Lrig1 Cre/ER/LSL Hras and Lrig1 Cre/ER/LSL-Kras^G12D mice have been backcrossed into the FVB/N background over multiple generations to minimize the effects of genetic heterogeneity on tumor development. Cre recombinase was activated in both groups of mice by administering a single dose of 4oht (Tamoxifen), topically applied at 8 weeks of age. On day 7 thereafter, wounding was induced on their backs by cutting a 2 cm incision for papilloma development.
# [7] = human pancreatic cancer cells (FIG. 14A right)
# [8] = Rasless MEFs rescued with H-Ras^V12 (FIG. 13C)
# [9] = Rasless MEFs rescued with K-Ras(4B)^V12 (FIG. 13C)
smiles,measurement,setting,value
"CC(=O)O[C@@]12C[C@@H](C)[C@@]3(O)C(C=C(CO)C[C@]4(O)C(=O)C(C)=C[C@@H]34)[C@@H]1C2(C)C (stereo partly shown) [prostratin, 12-deoxyphorbol-13-acetate]",expression of cleaved caspase 3 in subcutaneous tumors,[1]; FIG. 14D,enhanced expression of cleaved caspase 3
same,growth rate of established subcutaneous tumors,"[1]; daily oral treatment from 10 to 14 days post-injection, vs vehicle (FIG. 7A)",significantly reduced growth rate
same,cell morphology,[2]; human pancreatic cancer cell lines with mutant K-Ras (FIG. 14A left),cell morphological changes phenocopying those observed with knock-down of K-Ras or over-expression of Fzd8
same,cell viability,[2]; [7],significantly reduced cell viability
same,proliferating rate,[2]; [7],significantly reduced
same,endogenous interaction between K-Ras and CaM,[3],abolished the endogenous interaction between K-Ras and CaM
same,phospho-CaMKii response,[4]; [8],minimal responses
same,phospho-CaMKii,[4]; [9],increased phospho-CaMKii
same,cell viability response,[5]; [8],minimal responses
same,cell viability,[5]; [9],decreased cell viability
same,"EMT markers (E-cadherin, vimentin) in K-Ras^G12V-driven skin tumors",[6]; FIG. 7E,maintained strong expression of epithelial maker
same,growth rate of K-Ras^G12V-induced papillomas,[6]; FIG. 14E,significantly slowed down the growth rate
same,formation of papillomas driven by K-Ras^G12V,[6]; daily treatment (FIG. 7D),significantly delayed/reduced the formation of papillomas
